We go through four compounds from article PMC8621208, “Antiseptic 9-Meric Peptide with Potency against Carbapenem-Resistant Acinetobacter baumannii Infection” (International Journal of Molecular Sciences, 2021).

Converted amounts (≈) assume the structure as drawn. Read-outs that look alike come from different tables or passages of the source.

In one experiment the test system is E. coli. Put plainly: MIC, broth dilution. Format: cell-based, Escherichia coli KCTC 1682. The settings on record: Escherichia coli, 16 h, read-out: Minimal Inhibitory Concentration (MIC). From the text:
(§1) Escherichia coli KCTC 1682 was obtained from the Korean Collection for Type Cultures (KCTC) (Jeongeup-si, Korea), Acinetobacter baumannii KCCM 40203, Pseudomonas aeruginosa KCCM 11328 from the Korea Culture Center of Microorganisms (KCCM) (Seoul, Korea). Klebsiella pneumoniae NCCP 16054 were obtained from the National Culture Collection for Pathogens (NCCP) (Osong, Korea). Additionally, two carbapenem-resistant E. coli (CREC E1 and E2), 11 carbapenem-resistant A. baumannii (CRAB C0–C10) and two carbapenem-resistant K. pneumoniae (CRKP K1 and K2) were isolated from the patients, who presented symptoms and signs of infection at Korea University Anam Hospital (Seoul, Korea) (IRB registration no. 2020AN0157, 4 March 2021). CRAB C0–C10 have the OXA-23 gene with carbapenem-resistance.
(§2) The minimum inhibitory concentrations (MIC) were determined using broth dilution method. Briefly, all the mentioned bacterial strains were grown overnight at 37 °C by Muller–Hinton (MH) media. […] After 16 h incubation, the bacterial growth was read at 600 nm using a SpectraMAX microplate reader (Molecular Devices, San Jose, CA, USA).

For the next experiment, the system named is A. baumannii. Put plainly: MIC, broth dilution. The settings on record: Acinetobacter baumannii, 16 h, MH media, read-out: Minimal Inhibitory Concentration (MIC). The experiment is classed as cell-based, Acinetobacter baumannii KCCM 40203.
Text: as §1, §2
In general terms: In broth dilution the organism is exposed to a series of concentrations in liquid medium.

The subject of the next experiment is P. aeruginosa. In words: MIC, broth dilution. The experiment is classed as cell-based, Pseudomonas aeruginosa KCCM 11328. The note with it: Pseudomonas aeruginosa, 16 h, MH media, read-out: Minimal Inhibitory Concentration (MIC).
Text: as §1, §2

In a further experiment the test system is CREC E1. Put plainly: MIC, broth dilution. The experiment is classed as cell-based, carbapenem-resistant E. coli. The settings on record: Escherichia coli, read-out: Minimal Inhibitory Concentration (MIC).
Text: as §1, §2

The test system of a further experiment is CREC E2. In words: MIC, broth dilution. Format: cell-based, carbapenem-resistant E. coli. The note with it: Escherichia coli, read-out: Minimal Inhibitory Concentration (MIC).
Text: as §1, §2

For experiment [1], the system named is CRAB C0. In words: MIC, broth dilution. Format: cell-based, carbapenem-resistant A. baumannii. The note with it: Acinetobacter baumannii, read-out: Minimal Inhibitory Concentration (MIC).
Text: as §1, §2

The next experiment deals with CRAB C10. Put plainly: MIC, broth dilution. Format: cell-based, carbapenem-resistant A. baumannii. The note with it: Acinetobacter baumannii, read-out: Minimal Inhibitory Concentration (MIC).
Text: as §1, §2

The subject of a further experiment is CRAB C2. Put plainly: MIC, broth dilution. Format: cell-based, carbapenem-resistant A. baumannii. The settings on record: Acinetobacter baumannii, read-out: Minimal Inhibitory Concentration (MIC).
Text: as §1, §2

In the next experiment the test system is CRAB C3. Put plainly: MIC, broth dilution. Format: cell-based, carbapenem-resistant A. baumannii. The settings on record: Acinetobacter baumannii, read-out: Minimal Inhibitory Concentration (MIC).
Text: as §1, §2

The test system of a further experiment is CRAB C4. In words: MIC, broth dilution. The experiment is classed as cell-based, carbapenem-resistant A. baumannii. The settings on record: Acinetobacter baumannii, read-out: Minimal Inhibitory Concentration (MIC).
Text: as §1, §2

A further experiment has as its system CRAB C5. Put plainly: MIC, broth dilution. Format: cell-based, carbapenem-resistant A. baumannii. The note with it: Acinetobacter baumannii, read-out: Minimal Inhibitory Concentration (MIC).
Text: as §1, §2

The test system of the next experiment is CRAB C6. In words: MIC, broth dilution. Format: cell-based, carbapenem-resistant A. baumannii. The settings on record: Acinetobacter baumannii, read-out: Minimal Inhibitory Concentration (MIC).
Text: as §1, §2

In the next experiment the test system is CRAB C7. In words: MIC, broth dilution. The note with it: Acinetobacter baumannii, read-out: Minimal Inhibitory Concentration (MIC). The experiment is classed as cell-based, carbapenem-resistant A. baumannii.
Text: as §1, §2

In the next experiment the test system is CRAB C9. In words: MIC, broth dilution. The experiment is classed as cell-based, carbapenem-resistant A. baumannii. The settings on record: Acinetobacter baumannii, read-out: Minimal Inhibitory Concentration (MIC).
Text: as §1, §2

The test system of a further experiment is CRAB C1. In words: microbe, parasite or virus in culture. The settings on record: Acinetobacter baumannii, read-out: Minimal Inhibitory Concentration (MIC).
Text: as §1, §2

Another experiment concerns CRAB C8. Put plainly: microbe, parasite or virus in culture. The settings on record: Acinetobacter baumannii, read-out: Minimal Inhibitory Concentration (MIC).
Text: as §1, §2

The subject of the next experiment is K. pneumoniae. Put plainly: microbe, parasite or virus in culture. The settings on record: Klebsiella pneumoniae, 16 h, read-out: Minimal Inhibitory Concentration (MIC).
Text: as §1, §2

Another experiment deals with CRKP K1. Put plainly: MIC, broth dilution. The settings on record: Klebsiella pneumoniae, read-out: Minimal Inhibitory Concentration (MIC). Format: cell-based, carbapenem-resistant K. pneumoniae.
Text: as §1, §2

In another experiment the test system is CRKP K2. In words: MIC, broth dilution. Format: cell-based, carbapenem-resistant K. pneumoniae. The settings on record: Klebsiella pneumoniae, read-out: Minimal Inhibitory Concentration (MIC).
Text: as §1, §2

Experiment [2] relates to standard Gram-negative bacteria and carbapenem-resistant Gram-negative bacteria. Put plainly: Mean MIC over all bacterial strains (GM) and selective index. Format: cell-based. The note with it: read-out: GM (geometric mean of MIC values of all bacterial strains). The protocol: as §2
Experiment [3] has as its system CRAB C0. In words: Biofilm assay, crystal violet staining. Format: cell-based, carbapenem-resistant A. baumannii. The settings on record: 16 h. The protocol: Figure 4 Pro9-3 and its analogs have biofilm inhibition properties against CRAB. The antibiofilm activities of peptides (0–32 μM, 16 h) on (A) A. baumannii and (B) CRAB C0 strains were measured by crystal violet staining and the number of attached cells were read at 595 nm. Melittin, meropenem and imipenem were used as a control. Data are shown as the mean ± SEM (n = 3) and are statistically significant at * p < 0.05; *** p < 0.001; ns, not significant (two-way analysis of variance (ANOVA) with Dunnett’s comparison test).
The effects of peptides on biofilm inhibition of A. baumannii and CRAB C0 strains were performed as described previously. […] After treatment, bacterial cells were fixed with methanol (100%, 15 min) followed by crystal violet staining (0.1% (w/v) in 0.25% (v/v) acetic acid for 1 h). The plates were washed with distilled H2O, allowed to dry, and dissolved in ethanol (100% v/v). The color development representing the degree of biofilm was measured at 595 nm.

A further experiment has as its system LPS. Put plainly: Limulus amebocyte lysate (LAL) assay, LPS neutralization. Format: biochemical. The settings on record: 1.6 μM. The protocol: Peptide-mediated LPS neutralization was determined using LAL assay (GenScript, Piscataway, NJ, USA). Briefly, peptides 10 μL each (3.1, 6.3, 12.5, 25, and 50 μM) were allowed to interact with LPS (2 ng/mL) for 10 min at 37 °C. LL-37 was used as a control. A LAL enzyme (10 μL) was added to peptide-LPS complex for 10 min followed by addition of a chromogenic substrate (5 min, 37 °C). The reaction was stopped using color substrates and the absorbance was measured at 545 nm against endotoxin standard. The endotoxin levels are expressed as endotoxin units (EU) per milliliter.

The next experiment concerns LPS (E. coli O111:B4). Put plainly: Peptide-LPS binding, BODIPY-TR-cadaverine displacement assay. The note with it: 4 μM. The method, then: The binding abilities of the peptides with LPS was analyzed by BODIPY-TR cadaverine (BC, Thermo Fisher Scientific, Waltham, MA, USA)-displacement assay. The probe complex was prepared by mix 5 μg/mL BC with 5 μg/mL LPS (E. coli O111:B4, Sigma-Aldrich, St. Louis, MO, USA) in a 50 mM Tris buffer (pH 7.4) at room temperature for 6 h. Peptides including polymyxin B (PMB) control (1–64 μM) were allowed to interact with LPS–BC mix in a black 96-well plate for 30 min. The relative fluorescence intensity was recorded at an excitation wavelength of 580 nm and emission wavelength of 620 nm using a fluorescence microplate reader (Molecular Devices, San Jose, CA, USA).

Regarding `C[C@@H](O)[C@H]1C(=O)N2C(C(=O)O)=C(SCCN=CN)C[C@H]12` [Imipenem, reference compound], the MIC is 0.5 µM (≈ 0.15 µg/mL) with E. coli; 1 µM (≈ 0.299 µg/mL) in the experiment with A. baumannii; 1 µM (≈ 0.299 µg/mL) in the experiment with P. aeruginosa; > 128 µM with CREC E1; 16 µM (≈ 4.79 µg/mL) in the experiment with CREC E2; > 128 µM in the experiment with CRAB C0 [1]. Moreover, the MIC in the experiment on CRAB C10 was > 128 µM; with CRAB C2, > 128 µM; with CRAB C3, 128 µM (≈ 38.3 µg/mL); with CRAB C4 it was 128 µM (≈ 38.3 µg/mL); in the experiment on CRAB C5, 128 µM (≈ 38.3 µg/mL); in the experiment on CRAB C6, 128 µM (≈ 38.3 µg/mL). Further, the MIC in the experiment on CRAB C7 was 128 µM (≈ 38.3 µg/mL); in the experiment with CRAB C9 it was > 128 µM; in the experiment with CRAB C1, > 128 µM; in the experiment on CRAB C8, > 128 µM; in the experiment with K. pneumoniae it was < 0.25 µM; in the experiment with CRKP K1, 32 µM (≈ 9.58 µg/mL). In addition, the MIC with CRKP K2 was > 128 µM; in experiment [2], 90.3 µM (≈ 27 µg/mL). The “Biofilm inhibition of CRAB C0” value with CRAB C0 [3] is given as “unable to inhibit”.

On to `C[C@@H](O)[C@H]1C(=O)N2C(C(=O)O)=C(S[C@@H]3CN[C@H](C(=O)N(C)C)C3)[C@H](C)[C@H]12` [Meropenem, reference compound], for which the MIC with E. coli (E. coli, MH media) is 0.25 µM (≈ 0.0959 µg/mL); with A. baumannii, 0.5 µM (≈ 0.192 µg/mL); in the experiment with P. aeruginosa it was 1 µM (≈ 0.383 µg/mL); in the experiment on CREC E1, > 128 µM; with CREC E2, 16 µM (≈ 6.14 µg/mL); in the experiment with CRAB C0 [1] it was 128 µM (≈ 49.1 µg/mL). Besides, the MIC with CRAB C10 is > 128 µM; with CRAB C2, 128 µM (≈ 49.1 µg/mL); in the experiment on CRAB C3, 128 µM (≈ 49.1 µg/mL); in the experiment with CRAB C4, > 128 µM; in the experiment with CRAB C5 it was > 128 µM; with CRAB C6, > 128 µM. The MIC with CRAB C7 was 128 µM (≈ 49.1 µg/mL); with CRAB C9 it was > 128 µM; in the experiment with CRAB C1, > 128 µM; in the experiment with CRAB C8, > 128 µM; with K. pneumoniae, < 0.25 µM; in the experiment with CRKP K1, 64 µM (≈ 24.5 µg/mL). The MIC in the experiment with CRKP K2 is > 128 µM; in [2] it was 91.9 µM (≈ 35.2 µg/mL). Also, in the experiment with CRAB C0 [3], the “Biofilm inhibition of CRAB C0” value is “unable to inhibit”.

As to LL-37, in the experiment with LPS, the “LPS neutralization (LAL assay)” value is reported as 76.5%.

For polymyxin B [PMB], the “BC displacement (LPS binding)” value with LPS (E. coli O111:B4) came to 76.6%.
